Results reported in article PMC6025358 (Marine Drugs, 2018).

Target: rat α3β4 nAChR (Rattus norvegicus, UniProt P04757+P12392)
Assay: cell-based
Conditions: for inhibition at 0.1 µM / inhibition at 1 µM: read-out: Inhibition of ACh-evoked α3β4 nAChR-mediated current

rat α3β4 nAChR, sequence (P04757 26-499 limits assumed): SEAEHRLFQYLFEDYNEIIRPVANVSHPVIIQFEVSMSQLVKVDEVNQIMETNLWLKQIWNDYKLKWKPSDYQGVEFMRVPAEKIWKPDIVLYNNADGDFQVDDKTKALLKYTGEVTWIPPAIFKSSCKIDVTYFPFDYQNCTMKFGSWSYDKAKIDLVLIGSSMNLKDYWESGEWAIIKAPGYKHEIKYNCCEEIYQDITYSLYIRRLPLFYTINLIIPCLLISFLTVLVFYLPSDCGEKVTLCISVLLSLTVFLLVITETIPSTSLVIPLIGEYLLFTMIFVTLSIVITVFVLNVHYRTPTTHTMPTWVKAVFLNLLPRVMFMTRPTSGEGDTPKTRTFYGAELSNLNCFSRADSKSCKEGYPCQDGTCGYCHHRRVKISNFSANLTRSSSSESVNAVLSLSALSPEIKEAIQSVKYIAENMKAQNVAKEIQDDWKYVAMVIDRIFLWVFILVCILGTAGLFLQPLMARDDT
rat α3β4 nAChR, sequence (P12392 21-495 limits assumed): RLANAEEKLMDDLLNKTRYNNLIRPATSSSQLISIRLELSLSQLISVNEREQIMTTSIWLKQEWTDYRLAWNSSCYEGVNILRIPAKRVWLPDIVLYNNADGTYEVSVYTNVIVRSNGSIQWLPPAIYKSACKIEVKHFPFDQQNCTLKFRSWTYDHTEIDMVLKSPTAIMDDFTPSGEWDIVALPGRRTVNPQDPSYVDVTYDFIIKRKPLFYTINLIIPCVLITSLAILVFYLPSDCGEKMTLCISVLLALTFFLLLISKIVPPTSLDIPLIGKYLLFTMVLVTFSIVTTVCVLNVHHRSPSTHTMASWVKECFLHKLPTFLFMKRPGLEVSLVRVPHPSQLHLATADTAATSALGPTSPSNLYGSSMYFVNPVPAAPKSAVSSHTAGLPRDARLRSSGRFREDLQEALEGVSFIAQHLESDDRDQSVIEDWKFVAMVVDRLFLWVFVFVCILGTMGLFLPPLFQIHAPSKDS

| SMILES | inhibition at 0.1 µM | inhibition at 1 µM | IC50 |
| --- | --- | --- | --- |
| CC[C@H](C)[C@@H]1NC(=O)[C@@H]2CCCN2C(=O)[C@H](CO)NC(=O)[C@H](CCSC)NC(=O)[C@H](C)NC(=O)[C@H](CO)NC(=O)[C@@H]2CSSC[C@H](NC(=O)CN)C(=O)N[C@@H](CSSC[C@@H](C(N)=O)NC1=O)C(=O)N[C@@H](CO)C(=O)N[C@@H](Cc1c[nH]cn1)C(=O)N1CCC[C@H]1C(=O)N[C@@H](C(C)C)C(=O)N2 [TxID] | ~80% | ~100% | – |
| CC[C@H](C)[C@@H]1NC(=O)[C@@H]2CCCN2C(=O)[C@H](CO)NC(=O)[C@H](CC[S+](C)[O-])NC(=O)[C@H](C)NC(=O)[C@H](CO)NC(=O)[C@@H]2CSSC[C@H](NC(=O)CN)C(=O)N[C@@H](CSSC[C@@H](C(N)=O)NC1=O)C(=O)N[C@@H](CO)C(=O)N[C@@H](Cc1c[nH]cn1)C(=O)N1CCC[C@H]1C(=O)N[C@@H](C(C)C)C(=O)N2 (some centres unmarked) [[MO]TxID] | 25% | 72% | 245 nM |
